From the supplement of paper PMC11061612

What was measured:
[1] = system: 5637 (Bladder Carcinoma); assay: Bliss excess, mean over the matrix (fraction); higher = more synergy
Procedure, shortened: (§1)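 Bliss excess equals the observed combination effect minus the expected value EA + EB − EA·EB, where EA and EB are the effects of each agent alone. Combination Emax is the second-highest inhibition within the matrix. Inhibition was scaled from CellTiter-Glo 2.0 luminescence, with 0 set by vehicle wells and 1 by blank wells, after 72 hours of two-drug dosing of cells plated in 1536-well plates.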

[2] = system: EW-16 (Ewing's Sarcoma); assay: as above
Procedure, shortened: as §1

[3] = system: GA-10 (Burkitt's Lymphoma); assay: as above
Procedure, shortened: as §1

[4] = system: JIMT-1 (Breast Carcinoma); assay: as above
Procedure, shortened: as §1

[5] = system: KYSE-140 (Esophageal Squamous Cell Carcinoma); assay: as above
Procedure, shortened: as §1

[6] = system: 22RV1 (Prostate Carcinoma); assay: combination Emax (second highest fraction inhibited in the dose matrix, 72 h); higher = more inhibition; extreme values may be limits of the assay
Procedure, shortened: as §1

[7] = system: 5637 (Bladder Carcinoma); assay: as above
Procedure, shortened: as §1

[8] = system: A204 (Rhabdomyosarcoma); assay: as above
Procedure, shortened: as §1

[9] = system: ESO26 (Esophageal Adenocarcinoma); assay: as above
Procedure, shortened: as §1

[10] = system: EW-7 (Ewing's Sarcoma); assay: as above
Procedure, shortened: as §1

[11] = system: G-402 (Other Solid Carcinomas); assay: as above
Procedure, shortened: as §1

[12] = system: HCC70 (Breast Carcinoma); assay: as above
Procedure, shortened: as §1

[13] = system: HT55 (Colorectal Carcinoma); assay: as above
Procedure, shortened: as §1

[14] = system: JHH-2 (Hepatocellular Carcinoma); assay: as above
Procedure, shortened: as §1

[15] = system: JHU-022 (Oral Cavity Carcinoma); assay: as above
Procedure, shortened: as §1

[16] = system: LS-411N (Colorectal Carcinoma); assay: as above
Procedure, shortened: as §1

[17] = system: MDA-MB-436 (Breast Carcinoma); assay: as above
Procedure, shortened: as §1

[18] = system: NB13 (Neuroblastoma); assay: as above
Procedure, shortened: as §1

[19] = system: OACp4C (Esophageal Adenocarcinoma); assay: as above
Procedure, shortened: as §1

[20] = system: huH-1 (Hepatocellular Carcinoma); assay: as above
Procedure, shortened: as §1

## C=CCn1c(=O)c2cnc(Nc3ccc(N4CCN(C)CC4)cc3)nc2n1-c1cccc(C(C)(C)O)n1 [AZD1775] + C[C@@H]1COCCN1C2=NC(=NC(=C2)C3(CC3)[S@](=N)(=O)C)C4=C5C=CNC5=NC=C4 [AZD6738] (first compound max 1 µM, partner max 10 µM)
[1]
  Bliss excess: 0.007
[2]
  Bliss excess: 0.0132
[3]
  Bliss excess: 0.0096
[4]
  Bliss excess: -0.01
[5]
  Bliss excess: 0.0259
[6]
  combination Emax: 0.636
[7]
  combination Emax: 0.898
[8]
  combination Emax: 0.369
[9]
  combination Emax: 0.399
[10]
  combination Emax: 0.944
[11]
  combination Emax: 0.674
[12]
  combination Emax: 0.898
[13]
  combination Emax: 0.782
[14]
  combination Emax: 0.737
[15]
  combination Emax: 0.601
[16]
  combination Emax: 0.77
[17]
  combination Emax: 0.478
[18]
  combination Emax: 0.953
[19]
  combination Emax: 0.831
[20]
  combination Emax: 0.794

## Cc1c2c(nn1C)CSCc1cc(n(C)n1)CSc1cc(c3ccccc3c1)OCCCc1c(C(=O)O)n(C)c3c-2c(Cl)ccc13 [AZD5991] + C[C@@H](Nc1cc(F)cc(F)c1)c1cc(C(=O)N(C)C)cc2c(=O)cc(N3CCOCC3)oc12 [AZD8186] (first compound max 1 µM, 7x7, partner max 3 µM)
[1]
  Bliss excess: -0.036
[2]
  Bliss excess: -0.0571
[3]
  Bliss excess: 0.0321
[4]
  Bliss excess: -0.0492
[5]
  Bliss excess: -0.0439
[6]
  combination Emax: 0.48
[7]
  combination Emax: 0.25
[8]
  combination Emax: 0.785
[9]
  combination Emax: 0.284
[10]
  combination Emax: 0.3
[11]
  combination Emax: 0.942
[12]
  combination Emax: 1
[13]
  combination Emax: 0.272
[14]
  combination Emax: 0.768
[15]
  combination Emax: 0.398
[16]
  combination Emax: 0.178
[17]
  combination Emax: 0.358
[18]
  combination Emax: 0.331
[19]
  combination Emax: 0.664
[20]
  combination Emax: 0.192

## CC1(C)CCC(CN2CCN(c3ccc(C(=O)NS(=O)(=O)c4ccc(NCC5CCOCC5)c([N+](=O)[O-])c4)c(Oc4cnc5[nH]ccc5c4)c3)CC2)=C(c2ccc(Cl)cc2)C1 [Venetoclax] + Cc1cc2ncnn2cc1Nc1ncc2c(n1)n(C1CCOCC1)c(=O)n2C [AZD7648] (first compound max 1 µM, 7x7, partner max 10 µM)
[1]
  Bliss excess: -0.0504
[2]
  Bliss excess: -0.0534
[3]
  Bliss excess: -0.0603
[4]
  Bliss excess: -0.0248
[5]
  Bliss excess: -0.0044
[6]
  combination Emax: 0.456
[7]
  combination Emax: 0.251
[8]
  combination Emax: 0.408
[9]
  combination Emax: 0.134
[10]
  combination Emax: 0.95
[11]
  combination Emax: 0.501
[12]
  combination Emax: 0.399
[13]
  combination Emax: 0.205
[14]
  combination Emax: 0.506
[15]
  combination Emax: 0.221
[16]
  combination Emax: 0.107
[17]
  combination Emax: 0.22
[18]
  combination Emax: 0.368
[19]
  combination Emax: 0.338
[20]
  combination Emax: 0.162

## COc1cccc(OCCCN)c1-c1cc(Nc2cnc(C#N)cn2)n[nH]1 [Prexasertib] + Cc1cc2ncnn2cc1Nc1ncc2c(n1)n(C1CCOCC1)c(=O)n2C [AZD7648] (first compound max 1 µM, 7x7, partner max 10 µM)
[1]
  Bliss excess: -0.0423
[2]
  Bliss excess: 0.0156
[3]
  Bliss excess: -0.0051
[4]
  Bliss excess: -0.0205
[5]
  Bliss excess: -0.0066
[6]
  combination Emax: 0.575
[7]
  combination Emax: 0.845
[8]
  combination Emax: 0.528
[9]
  combination Emax: 0.504
[10]
  combination Emax: 0.971
[11]
  combination Emax: 0.58
[12]
  combination Emax: 0.922
[13]
  combination Emax: 0.65
[14]
  combination Emax: 0.891
[15]
  combination Emax: 0.634
[16]
  combination Emax: 0.753
[17]
  combination Emax: 0.431
[18]
  combination Emax: 0.919
[19]
  combination Emax: 0.649
[20]
  combination Emax: 0.762

## CCN(CCO)CCCOc1ccc2c(Nc3cc(CC(=O)Nc4cccc(F)c4)[nH]n3)ncnc2c1 [AZD2811] + O=C(c1cc(Cc2n[nH]c(=O)c3ccccc23)ccc1F)N1CCN(C(=O)C2CC2)CC1 [Olaparib] (first compound max 1 µM, 7x7, partner max 10 µM)
[1]
  Bliss excess: -0.0349
[2]
  Bliss excess: 0.0661
[3]
  Bliss excess: -0.0469
[4]
  Bliss excess: -0.0127
[5]
  Bliss excess: 0.0429
[6]
  combination Emax: 0.337
[7]
  combination Emax: 0.622
[8]
  combination Emax: 0.387
[9]
  combination Emax: 0
[10]
  combination Emax: 0.361
[11]
  combination Emax: 0.605
[12]
  combination Emax: 0.675
[13]
  combination Emax: 0.291
[14]
  combination Emax: 0.202
[15]
  combination Emax: 0.271
[16]
  combination Emax: 0.149
[17]
  combination Emax: 0.144
[18]
  combination Emax: 0.626
[19]
  combination Emax: 0.408
[20]
  combination Emax: 0.415

## Cc1c2c(nn1C)CSCc1cc(n(C)n1)CSc1cc(c3ccccc3c1)OCCCc1c(C(=O)O)n(C)c3c-2c(Cl)ccc13 [AZD5991] + CC1(C)CCC(CN2CCN(c3ccc(C(=O)NS(=O)(=O)c4ccc(NCC5CCOCC5)c([N+](=O)[O-])c4)c(Oc4cnc5[nH]ccc5c4)c3)CC2)=C(c2ccc(Cl)cc2)C1 [Venetoclax] (first compound max 1 µM, 7x7, partner max 1 µM)
[1]
  Bliss excess: -0.0474
[2]
  Bliss excess: -0.0326
[3]
  Bliss excess: -0.0658
[4]
  Bliss excess: -0.0155
[5]
  Bliss excess: 0.0154
[6]
  combination Emax: 0.462
[7]
  combination Emax: 0.217
[8]
  combination Emax: 0.513
[9]
  combination Emax: 0.151
[10]
  combination Emax: 0.487
[11]
  combination Emax: 0.926
[12]
  combination Emax: 0.938
[13]
  combination Emax: 0.13
[14]
  combination Emax: 0.218
[15]
  combination Emax: 0.116
[16]
  combination Emax: 0.157
[17]
  combination Emax: 0.0835
[18]
  combination Emax: 0.546
[19]
  combination Emax: 0.74
[20]
  combination Emax: 0.162

## NC1(C(=O)N[C@@H](CCO)c2ccc(Cl)cc2)CCN(c2ncnc3[nH]ccc23)CC1 [Capivasertib] + CC(C)n1c(=O)n(C)c2cnc3cc(F)c(-c4ccc(OCCCN5CCCCC5)nc4)cc3c21 [AZD1390] (first compound max 10 µM, 7x7, partner max 0.3 µM)
[1]
  Bliss excess: -0.052
[2]
  Bliss excess: -0.079
[3]
  Bliss excess: -0.028
[4]
  Bliss excess: -0.0118
[5]
  Bliss excess: -0.033
[6]
  combination Emax: 0.527
[7]
  combination Emax: 0.336
[8]
  combination Emax: 0.382
[9]
  combination Emax: 0.449
[10]
  combination Emax: 0.587
[11]
  combination Emax: 0.398
[12]
  combination Emax: 0.707
[13]
  combination Emax: 0.381
[14]
  combination Emax: 0.539
[15]
  combination Emax: 0.413
[16]
  combination Emax: 0.434
[17]
  combination Emax: 0.267
[18]
  combination Emax: 0.254
[19]
  combination Emax: 0.818
[20]
  combination Emax: 0.299

## Cn1cnc2c(F)c(Nc3ccc(Br)cc3Cl)c(C(=O)NOCCO)cc21 [Selumetinib] + C[C@@H]1COCCN1C2=NC(=NC(=C2)C3(CC3)[S@](=N)(=O)C)C4=C5C=CNC5=NC=C4 [AZD6738] (first compound max 10 µM, 7x7, partner max 10 µM)
[1]
  Bliss excess: 0.0382
[2]
  Bliss excess: -0.0914
[3]
  Bliss excess: -0.0046
[4]
  Bliss excess: -0.0853
[5]
  Bliss excess: -0.0888
[6]
  combination Emax: 0.526
[7]
  combination Emax: 0.633
[8]
  combination Emax: 0.388
[9]
  combination Emax: 0.486
[10]
  combination Emax: 0.951
[11]
  combination Emax: 0.645
[12]
  combination Emax: 0.778
[13]
  combination Emax: 0.735
[14]
  combination Emax: 0.641
[15]
  combination Emax: 0.567
[16]
  combination Emax: 0.808
[17]
  combination Emax: 0.243
[18]
  combination Emax: 0.855
[19]
  combination Emax: 0.856
[20]
  combination Emax: 0.537
